How the values were obtained:
[1] = system: Candida albicans; test: MIC of fumifungin, growth inhibition of Candida albicans; assay type: cell-based
[2] = system: bacteria; test: bactericidal properties; assay type: cell-based
[3] = system: Saccharomyces cerevisiae; test: MIC of fumifungin, growth inhibition of Saccharomyces cerevisiae; assay type: cell-based
[4] = system: Wild yeast; test: MIC of fumifungin, growth inhibition of Wild yeast; assay type: cell-based
[5] = system: Aspergillus niger; test: MIC of fumifungin, growth inhibition of Aspergillus niger; assay type: cell-based
[6] = system: fungi; test: fungicidal properties; assay type: cell-based
[7] = system: Cercospora beticola; test: MIC of fumifungin, growth inhibition of Cercospora beticola; assay type: cell-based
[8] = system: Cladosporium resinae; test: MIC of fumifungin, growth inhibition of Cladosporium resinae; assay type: cell-based; conditions: Amorphotheca resinae
[9] = Solubility (physicochemical properties of fumifungin); conditions: solvents in which soluble
[10] = system: Alternaria solani; test: MIC of fumifungin, growth inhibition of Alternaria solani; assay type: cell-based

With `CCCCCCC(O)CCCCCCC=CC(O)C(OC(C)=O)C(O)C(N)C(=O)O` (stereo not shown) [fumifungin, 2-amino-4-acetoxy-3,5,14-tri-hydroxy-Δ^6-eicosenoic acid] the MIC [1] was 62.5 mg/mL, the bactericidal properties [2] was “bactericidal” and the MIC [3] was 62.5 mg/mL. For the same molecule, the MIC [4] was 62.5 mg/mL, the MIC [5] was over 7.8 mg/mL and the fungicidal properties [6] was “fungicidal”. For the same molecule, the MIC [7] was 0.9 mg/mL, the MIC [8] was over 0.9 mg/mL and the Solubility [9] was “methanol, DMSO”. The MIC [10] was 31.2 mg/mL.

Reference: patent US5001258A, “Antibiotic, fumifungin, a microbial process for the preparation thereof, and the use thereof as a pharmaceutical” (Hoechst Aktiengesellschaft, priority 1987, dated 1991)
